According to US20160355530A1, “HEPATITIS C INHIBITORS AND USES THEREOF” (AbbVie Inc., priority 2010, published 2016):
Where two headings read alike, the source gives them in different places.

Assays:
[1] = target: T1, HCV NS5B polymerase 1b BK strain (Hepatitis C virus genotype 1b, UniProt P26663); experiment: HCV NS5B polymerase enzymatic inhibition assay, strain 1b BK; type: biochemical; conditions: enzyme, strain 1b BK; read-out: HCV Polymerase Strain 1b BK IC50
T1 construct: six-histidine tag; made in house; host or cells: E. coli
Experimental: (§1) Purified HCV NS5B polymerase enzymes were used for polymerase inhibition assays. All recombinant HCV polymerases contained the first 570 amino acids of the 591 amino acid native protein sequence and a six-histidine tag at the N-terminus or C-terminus to facilitate purification by affinity chromatography. The DNA nucleotide sequence for the HCV polymerase 1b BK strain was codon optimized for expression in E. coli. A synthetic gene was prepared from a series of overlapping oligonucleotides that were filled in using a DNA polymerase and amplified by PCR. The patient isolate HCV polymerases were cloned by RT-PCR methods using HCV RNA extracted from the serum of infected subjects obtained from ProMedDx and BioCollections (genotypes 2a, 2b, 3a, and 4a). Laboratory strains were cloned from plasmid DNA (1a-H77 or 1a-H77-C316Y) or from existing replicon cells (1b Rice). In all cases the amplified DNA was cloned into a protein expression vector (typically a pET vector from Novagen) and then multiple clones were sequenced to identify one whose NS5B sequence agreed with the population sequence. This sequence-confirmed clone was then transfected into E. coli for protein expression and purification. E. coli cultures were grown to a maximum optical density (OD) of 2-3 and then induced with 0.4 mM isopropyl beta-D-thiogalactopyranoside (IPTG) and grown for 20 hours at 20° C.
(§2) Proteins were purified using nickel affinity chromatography, and additional column steps were added including, ion exchange, size exclusion, hydrophobic ion, and poly-U affinity chromatography, as needed, depending on the sample being purified. The template RNA used in the polymerase enzymatic assay was a 2.1 kb construct that corresponds to the 3′-end of an HCV genotype 1b negative strand RNA.
(§3) The reaction was initiated by the addition of 20 μM CTP, 20 μM ATP, 0.284 μM (0.5 μCi) of 5,6-[^3H] UTP, 5 nM template RNA and 0.1 U/μL RNase inhibitor (RNasin, Promega), and allowed to proceed for three hours at 30° C. The final reaction volume was 50 μL. The reaction was terminated by the addition of 50 uL of 4 mM spermine in 10 mM Tris-HCl, pH 7.5, 1 mM EDTA. The quenched reaction was allowed to incubate for at least 15 minutes at room temperature, and then the precipitated RNA was captured by filtration through a glass fiber filter (GF/B, Millipore) in a 96 well format. The filter plate was washed five times with 200 μL of 2 mM spermine, 10 mM Tris-HCl, pH 8.0, 1 mM EDTA, and two times with ethanol. After drying thoroughly in air, 30 μL of Microscint-20 scintillation cocktail (Perkin Elmer) was added to each well, and the retained cpm were determined by scintillation counting. IC50 values were determined by nonlinear regression.
(§4) % Inhibition=100*[[I]/([I]+[IC50])] equation 1
(§5) V=kcat[S]/2(Km+[S])*(sqrt((IC50+I−E)̂2+(4*IC50*E))−(IC50+I−E)) equation 2

[2] = target: T2, HCV NS5B polymerase 1a-H77-C316Y (Hepatitis C virus genotype 1a, UniProt P27958, C2736Y); experiment: biochemical; design: species or system HCV genotype 1a
T2 construct: six-histidine tag; made in house; host or cells: E. coli
Experimental: as §1, §2, §3, §4, §5

[3] = target: T3, HCV NS5B polymerase 1a-H77 (Hepatitis C virus genotype 1a, UniProt P27958); experiment: biochemical; design: species or system HCV genotype 1a; conditions: enzyme, strain 1a H77; read-out: HCV Polymerase Strain 1a H77 IC50
T3 construct: six-histidine tag; made in house; host or cells: E. coli
Experimental: as §1, §2, §3, §4, §5

[4] = system: HCV NS5B polymerase 1a-H77-C316Y; experiment: biochemical; design: species or system HCV genotype 1a; conditions: ratio of enzyme IC50s, 1a H77-C316Y / 1a H77
Experimental: as §1, §2, §3, §4, §5

[5] = system: HCV 1b-BB7 subgenomic replicon; experiment: microbe, parasite or virus in culture; type: cell-based, HCV genotype 1b; conditions: Hepatitis C virus, stable replicon
[6] = system: HCV 1a-H77 subgenomic replicon; experiment: microbe, parasite or virus in culture; type: cell-based, HCV genotype 1a; conditions: Hepatitis C virus, stable replicon
[7] = strain 1b BB7, 5% FBS + 40% human plasma, read-out: 1b BB7 5% FBS + 40% Human Plasma EC50
[8] = strain 1b BB7, 5% FBS, no human plasma, read-out: 1b BB7 5% FBS EC50
[9] = strain 1b BB7, 5% FBS, read-out: 1b BB7 5% FBS EC50
[10] = 5% FBS, absence of human plasma, read-out: Stable Replicon 1a H77 5% FBS EC50
[11] = strain 1a H77, 5% FBS + 40% human plasma, read-out: 1a H77 5% FBS + 40% Human Plasma EC50
[12] = strain 1a H77, 5% FBS, no human plasma, read-out: 1a H77 5% FBS EC50
[13] = strain 1a H77, 5% FBS, read-out: 1a H77 5% FBS EC50

T2 sequence (P27958 2421-2990 C2736Y): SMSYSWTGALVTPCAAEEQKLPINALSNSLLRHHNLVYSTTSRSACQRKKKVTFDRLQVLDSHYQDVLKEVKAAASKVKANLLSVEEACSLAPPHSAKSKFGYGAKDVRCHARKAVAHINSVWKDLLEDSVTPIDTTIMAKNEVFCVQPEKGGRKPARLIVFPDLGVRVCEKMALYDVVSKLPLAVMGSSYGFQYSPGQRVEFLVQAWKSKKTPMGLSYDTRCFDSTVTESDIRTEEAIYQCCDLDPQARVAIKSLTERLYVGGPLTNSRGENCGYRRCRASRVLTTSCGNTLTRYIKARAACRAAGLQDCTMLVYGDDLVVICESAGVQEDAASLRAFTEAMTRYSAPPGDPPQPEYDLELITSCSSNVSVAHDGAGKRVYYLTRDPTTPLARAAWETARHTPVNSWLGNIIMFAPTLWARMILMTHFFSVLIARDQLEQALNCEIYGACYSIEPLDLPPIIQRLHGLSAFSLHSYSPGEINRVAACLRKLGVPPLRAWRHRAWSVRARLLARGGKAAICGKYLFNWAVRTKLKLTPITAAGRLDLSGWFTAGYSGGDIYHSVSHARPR
T3 sequence (P27958 2421-2990): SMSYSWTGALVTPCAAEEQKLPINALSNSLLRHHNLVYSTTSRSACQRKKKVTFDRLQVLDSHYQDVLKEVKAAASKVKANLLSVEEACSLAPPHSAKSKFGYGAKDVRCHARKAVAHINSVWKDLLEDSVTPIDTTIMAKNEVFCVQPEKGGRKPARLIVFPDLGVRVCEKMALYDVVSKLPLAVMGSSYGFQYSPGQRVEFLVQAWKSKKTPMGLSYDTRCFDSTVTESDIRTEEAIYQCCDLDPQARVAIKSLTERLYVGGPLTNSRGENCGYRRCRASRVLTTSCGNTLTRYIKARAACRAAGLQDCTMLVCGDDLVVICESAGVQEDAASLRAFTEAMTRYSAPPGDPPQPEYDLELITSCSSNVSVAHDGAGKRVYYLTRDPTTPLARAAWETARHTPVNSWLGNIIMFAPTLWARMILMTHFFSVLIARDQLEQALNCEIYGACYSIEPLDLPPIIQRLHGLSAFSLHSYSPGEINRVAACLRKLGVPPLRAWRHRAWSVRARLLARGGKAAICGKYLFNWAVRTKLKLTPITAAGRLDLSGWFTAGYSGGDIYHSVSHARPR
T1 sequence (P26663 2420-2989): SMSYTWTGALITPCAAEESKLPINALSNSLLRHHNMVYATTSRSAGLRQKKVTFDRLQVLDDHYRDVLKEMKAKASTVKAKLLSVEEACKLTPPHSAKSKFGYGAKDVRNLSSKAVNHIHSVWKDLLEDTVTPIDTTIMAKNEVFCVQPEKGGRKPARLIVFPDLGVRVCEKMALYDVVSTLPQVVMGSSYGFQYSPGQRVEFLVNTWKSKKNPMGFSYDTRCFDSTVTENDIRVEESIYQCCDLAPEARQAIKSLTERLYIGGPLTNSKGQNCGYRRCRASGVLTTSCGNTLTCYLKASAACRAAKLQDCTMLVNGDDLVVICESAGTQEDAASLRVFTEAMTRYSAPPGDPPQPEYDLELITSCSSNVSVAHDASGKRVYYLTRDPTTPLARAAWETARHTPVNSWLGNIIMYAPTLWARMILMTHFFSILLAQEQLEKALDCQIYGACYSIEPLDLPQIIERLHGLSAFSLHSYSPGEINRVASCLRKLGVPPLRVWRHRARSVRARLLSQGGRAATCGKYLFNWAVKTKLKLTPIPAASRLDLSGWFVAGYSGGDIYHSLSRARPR

Structure (SMILES)	IC50 [1]	IC50 [2]	IC50 [3]	C316Y/1a Fold Resistance [4]	EC50 [5, 7]	EC50 [5, 8]	EC50 [5, 9]	EC50 [6, 10]	EC50 [6, 11]	EC50 [6, 12]	EC50 [6, 13]
COc1ccc(CN(c2cc3oc(-c4ccc(F)cc4)c(C4=NC(C)CN4)c3cc2C2CC2)S(C)(=O)=O)cc1 (centres unmarked) [Example 2a, N-[5-cyclopropyl-2-(4-fluorophenyl)-3-(4-methyl-4,5-dihydro-1H-imidazol-2-yl)-1-benzofuran-6-yl]-N-(4-methoxybenzyl)methanesulfonamide]	0.055 µM	0.224 µM	0.015 µM	15 fold							
CC(c1ccccc1)N(c1ccc2c(-c3ncc[nH]3)c(-c3ccccc3)oc2c1)S(C)(=O)=O (centres unmarked) [Example 20, N-[3-(1H-imidazol-2-yl)-2-phenyl-1-benzofuran-6-yl]-N-(1-phenylethyl)methanesulfonamide]	0.052 µM	0.173 µM	0.0349 µM	5 fold	7.3 µM	0.133 µM	0.133 µM	1 µM	10 µM	1 µM	1 µM
CS(=O)(=O)N(Cc1ccccc1)c1ccc2c(-c3ncc[nH]3)c(-c3ccccc3)oc2c1 [Example 21, N-benzyl-N-[3-(1H-imidazol-2-yl)-2-phenyl-1-benzofuran-6-yl]methanesulfonamide]	0.099 µM	0.09 µM	0.0476 µM	2 fold	10 µM	0.593 µM	0.593 µM	3.44 µM		3.44 µM	3.44 µM
CS(=O)(=O)N(Cc1sc(Br)nc1C(F)(F)F)c1ccc2c(-c3ncc[nH]3)c(-c3ccccc3)oc2c1 [Example 22, N-{[2-bromo-4-(trifluoromethyl)-1,3-thiazol-5-yl]methyl}-N-[3-(1H-imidazol-2-yl)-2-phenyl-1-benzofuran-6-yl]methanesulfonamide]	0.055 µM	0.179 µM	0.159 µM	1 fold		0.866 µM	0.866 µM	2.38 µM		2.38 µM	2.38 µM
CC(C)(C)Oc1ncc(-c2ncc(CN(c3ccc4c(-c5ncc[nH]5)c(-c5ccccc5)oc4c3)S(C)(=O)=O)s2)c(OC(C)(C)C)n1 [Example 27, N-{[2-(2,4-di-tert-butoxypyrimidin-5-yl)-1,3-thiazol-5-yl]methyl}-N-[3-(1H-imidazol-2-yl)-2-phenyl-1-benzofuran-6-yl]methanesulfonamide]	0.099 µM	3.8 µM	0.214 µM	18 fold	5.46 µM	0.075 µM	0.075 µM	0.866 µM	10 µM	0.866 µM	0.866 µM
CS(=O)(=O)N(Cc1cnc(-c2c[nH]c(=O)[nH]c2=O)s1)c1ccc2c(-c3ncc[nH]3)c(-c3ccccc3)oc2c1 [Example 29, N-{[2-(2,4-dioxo-1,2,3,4-tetrahydropyrimidin-5-yl)-1,3-thiazol-5-yl]methyl}-N-[3-(1H-imidazol-2-yl)-2-phenyl-1-benzofuran-6-yl]methanesulfonamide]	0.009 µM	0.007 µM	0.003 µM	2 fold	9.83 µM	0.207 µM	0.207 µM	1 µM	10 µM	1 µM	1 µM
CS(=O)(=O)N(Cc1cccc(C(F)(F)F)c1)c1ccc2c(-c3ncc[nH]3)c(-c3ccccc3)oc2c1 [Example 32, N-[3-(1H-imidazol-2-yl)-2-phenyl-1-benzofuran-6-yl]-N-[3-(trifluoromethyl)benzyl]methanesulfonamide]	0.0801 µM	0.147 µM	0.132 µM	1 fold	79.6 µM	0.599 µM	0.599 µM	2.37 µM		2.37 µM	2.37 µM
CCC1NC(c2c(-c3ccc(F)cc3)oc3cc(N(CCC(C)C)S(C)(=O)=O)c(C4CC4)cc23)=NO1 (centres unmarked) [Example 155, N-[5-cyclopropyl-3-(5-ethyl-4,5-dihydro-1,2,4-oxadiazol-3-yl)-2-(4-fluorophenyl)-1-benzofuran-6-yl]-N-(3-methylbutyl)methanesulfonamide]		0.554 µM	0.053 µM	10 fold	10 µM	6.25 µM	6.25 µM	3.06 µM	10 µM	3.06 µM	3.06 µM
COc1ccc(CN(c2cc3oc(-c4ccc(F)cc4)c(C4=NOCC(=O)N4)c3cc2C2CC2)S(C)(=O)=O)cc1 [Example 160, N-[5-cyclopropyl-2-(4-fluorophenyl)-3-(5-oxo-5,6-dihydro-4H-1,2,4-oxadiazin-3-yl)-1-benzofuran-6-yl]-N-(4-methoxybenzyl)methanesulfonamide]	0.93 µM		0.11 µM		9.28 µM	0.604 µM	0.604 µM	2.16 µM	10 µM	2.16 µM	2.16 µM
CS(=O)(=O)Nc1cc2oc(-c3ccc(F)cc3)c(-c3nc(Cl)c(Cl)[nH]3)c2cc1C1CC1 [Example 163, N-[5-cyclopropyl-3-(4,5-dichloro-1H-imidazol-2-yl)-2-(4-fluorophenyl)-1-benzofuran-6-yl]methanesulfonamide]	0.555 µM		0.212 µM		10 µM	5.4 µM	5.4 µM	7.83 µM	10 µM	7.83 µM	7.83 µM
CS(=O)(=O)Nc1cc2oc(-c3ccc(F)cc3)c(-c3nc(Cl)c[nH]3)c2cc1C1CC1 [Example 164, N-[3-(4-chloro-1H-imidazol-2-yl)-5-cyclopropyl-2-(4-fluorophenyl)-1-benzofuran-6-yl]methanesulfonamide]	0.906 µM		0.136 µM		10 µM	1 µM	1 µM	1 µM	10 µM	1 µM	1 µM
CC(C)CCN(c1cc2oc(-c3ccc(F)cc3)c(-c3nc(C(F)(F)F)c[nH]3)c2cc1C1CC1)S(C)(=O)=O [Example 171, N-{5-cyclopropyl-2-(4-fluorophenyl)-3-[4-(trifluoromethyl)-1H-imidazol-2-yl]-1-benzofuran-6-yl}-N-(3-methylbutyl)methanesulfonamide]	88.7 µM		2.86 µM			9.27 µM	9.27 µM	7.62 µM		7.62 µM	7.62 µM
